{"source": "patent US11484539B2", "about": "“Compounds and their uses for alleviating menopause-associated symptoms” (Estetra SPRL, priority 2018, dated 2022)", "test_system": "post-menopausal women", "experiment": "Genito-urinary symptoms (GSM), VVA subject self-assessment", "format": "in vivo", "method": "Change from baseline to week 12 in the following GSM symptoms (VVA subject self-assessment) were recorded: • a) Vaginal dryness (sensation of dryness or burning in the vagina; none=0 mild=1, moderate=2 or severe=3):\n• b) Vaginal and/or vulvar irritation/itching (sensation of abnormal irritation or sensitive condition in the vagina; none=0, mild=1, moderate=2 or severe=3):\n• c) Dysuria (sensation of pain or difficulty in urinating; none=0, mild=1, moderate=2 or severe=3):\n• d) Vaginal pain associated with sexual activity (sensation of pain with sexual intercourse none=0, mild=1, moderate=2 or severe=3):\n• e) Vaginal bleeding associated with sexual activity (loss of blood with sexual intercourse; presence=1 vs. absence=0): […]", "note": "Marks after values point to notes of the source that are not given here."}
{"smiles": "C[C@]12CC[C@@H]3c4ccc(O)cc4CC[C@H]3[C@@H]1[C@@H](O)[C@@H](O)[C@@H]2O", "note": "[E4, 1,3,5 (10)-estratrien-3,15alpha,16alpha,17beta-tetrol]", "values": [{"measurement": "Dysuria score (none=0, mild=1, moderate=2, severe=3), mean ± SD", "setting": "2.5 mg, Baseline", "result": "0.2 ± 0.56"}, {"measurement": "Vaginal and/or vulvar irritation/itching score (none=0, mild=1, moderate=2, severe=3), mean ± SD", "setting": "2.5 mg, Baseline", "result": "0.7 ± 0.96"}, {"measurement": "Vaginal bleeding associated with sexual activity, Absence (%)", "setting": "2.5 mg, Baseline", "result": 100, "unit": "%"}, {"measurement": "Vaginal bleeding associated with sexual activity, Presence (%)", "setting": "2.5 mg, Baseline", "result": 0, "unit": "%"}, {"measurement": "Vaginal dryness score (none=0, mild=1, moderate=2, severe=3), mean ± SD", "setting": "2.5 mg, Baseline", "result": "1 ± 0.90"}, {"measurement": "Vaginal pain associated with sexual activity score (none=0, mild=1, moderate=2, severe=3), mean ± SD", "setting": "2.5 mg, Baseline", "result": "0.6 ± 0.77"}, {"measurement": "Dysuria score (none=0, mild=1, moderate=2, severe=3), mean ± SD", "setting": "2.5 mg, Week 12", "result": "0 ± 0.19"}, {"measurement": "Vaginal and/or vulvar irritation/itching score (none=0, mild=1, moderate=2, severe=3), mean ± SD", "setting": "2.5 mg, Week 12", "result": "0.3 ± 0.60"}, {"measurement": "Vaginal bleeding associated with sexual activity, Absence (%)", "setting": "2.5 mg, Week 12", "result": 100, "unit": "%"}, {"measurement": "Vaginal bleeding associated with sexual activity, Presence (%)", "setting": "2.5 mg, Week 12", "result": 0, "unit": "%"}, {"measurement": "Vaginal dryness score (none=0, mild=1, moderate=2, severe=3), mean ± SD", "setting": "2.5 mg, Week 12", "result": "0.5 ± 0.77"}, {"measurement": "Vaginal pain associated with sexual activity score (none=0, mild=1, moderate=2, severe=3), mean ± SD", "setting": "2.5 mg, Week 12", "result": "0.3 ± 0.73"}, {"measurement": "Dysuria score (none=0, mild=1, moderate=2, severe=3), mean ± SD", "setting": "5 mg, Baseline", "result": "0.2 ± 0.56"}, {"measurement": "Vaginal and/or vulvar irritation/itching score (none=0, mild=1, moderate=2, severe=3), mean ± SD", "setting": "5 mg, Baseline", "result": "0.6 ± 0.90"}, {"measurement": "Vaginal bleeding associated with sexual activity, Presence (%)", "setting": "5 mg, Baseline", "result": 6.4, "unit": "%"}, {"measurement": "Vaginal dryness score (none=0, mild=1, moderate=2, severe=3), mean ± SD", "setting": "5 mg, Baseline", "result": "1.3 ± 0.94"}, {"measurement": "Vaginal pain associated with sexual activity score (none=0, mild=1, moderate=2, severe=3), mean ± SD", "setting": "5 mg, Baseline", "result": "1 ± 1.07"}, {"measurement": "Vaginal bleeding associated with sexual activity, Absence (%)", "setting": "5 mg, Baseline, some patients had no sexual activity", "result": "91.5^# %"}, {"measurement": "Dysuria score (none=0, mild=1, moderate=2, severe=3), mean ± SD", "setting": "5 mg, Week 12", "result": "0 ± 0.20"}, {"measurement": "Vaginal and/or vulvar irritation/itching score (none=0, mild=1, moderate=2, severe=3), mean ± SD", "setting": "5 mg, Week 12", "result": "0.4 ± 0.65"}, {"measurement": "Vaginal bleeding associated with sexual activity, Absence (%)", "setting": "5 mg, Week 12", "result": 100, "unit": "%"}, {"measurement": "Vaginal bleeding associated with sexual activity, Presence (%)", "setting": "5 mg, Week 12", "result": 0, "unit": "%"}, {"measurement": "Vaginal dryness score (none=0, mild=1, moderate=2, severe=3), mean ± SD", "setting": "5 mg, Week 12", "result": "0.7 ± 0.86"}, {"measurement": "Vaginal pain associated with sexual activity score (none=0, mild=1, moderate=2, severe=3), mean ± SD", "setting": "5 mg, Week 12", "result": "0.5 ± 0.78"}, {"measurement": "Dysuria score (none=0, mild=1, moderate=2, severe=3), mean ± SD", "setting": "10 mg, Baseline", "result": "0.2 ± 0.58"}, {"measurement": "Vaginal and/or vulvar irritation/itching score (none=0, mild=1, moderate=2, severe=3), mean ± SD", "setting": "10 mg, Baseline", "result": "0.7 ± 0.87"}, {"measurement": "Vaginal bleeding associated with sexual activity, Absence (%)", "setting": "10 mg, Baseline", "result": 100, "unit": "%"}, {"measurement": "Vaginal bleeding associated with sexual activity, Presence (%)", "setting": "10 mg, Baseline", "result": 0, "unit": "%"}, {"measurement": "Vaginal dryness score (none=0, mild=1, moderate=2, severe=3), mean ± SD", "setting": "10 mg, Baseline", "result": "1 ± 0.93"}, {"measurement": "Vaginal pain associated with sexual activity score (none=0, mild=1, moderate=2, severe=3), mean ± SD", "setting": "10 mg, Baseline", "result": "0.6 ± 0.77"}, {"measurement": "Dysuria score (none=0, mild=1, moderate=2, severe=3), mean ± SD", "setting": "10 mg, Week 12", "result": "0.1 ± 0.23"}, {"measurement": "Vaginal and/or vulvar irritation/itching score (none=0, mild=1, moderate=2, severe=3), mean ± SD", "setting": "10 mg, Week 12", "result": "0.3 ± 0.64"}, {"measurement": "Vaginal bleeding associated with sexual activity, Absence (%)", "setting": "10 mg, Week 12", "result": 100, "unit": "%"}, {"measurement": "Vaginal bleeding associated with sexual activity, Presence (%)", "setting": "10 mg, Week 12", "result": 0, "unit": "%"}, {"measurement": "Vaginal dryness score (none=0, mild=1, moderate=2, severe=3), mean ± SD", "setting": "10 mg, Week 12", "result": "0.5 ± 0.75"}, {"measurement": "Vaginal pain associated with sexual activity score (none=0, mild=1, moderate=2, severe=3), mean ± SD", "setting": "10 mg, Week 12", "result": "0.2 ± 0.36"}, {"measurement": "Dysuria score (none=0, mild=1, moderate=2, severe=3), mean ± SD", "setting": "15 mg, Baseline", "result": "0.3 ± 0.58"}, {"measurement": "Vaginal and/or vulvar irritation/itching score (none=0, mild=1, moderate=2, severe=3), mean ± SD", "setting": "15 mg, Baseline", "result": "0.5 ± 0.85"}, {"measurement": "Vaginal bleeding associated with sexual activity, Presence (%)", "setting": "15 mg, Baseline", "result": 0, "unit": "%"}, {"measurement": "Vaginal dryness score (none=0, mild=1, moderate=2, severe=3), mean ± SD", "setting": "15 mg, Baseline", "result": "1.1 ± 1.04"}, {"measurement": "Vaginal pain associated with sexual activity score (none=0, mild=1, moderate=2, severe=3), mean ± SD", "setting": "15 mg, Baseline", "result": "0.7 ± 0.90"}, {"measurement": "Vaginal bleeding associated with sexual activity, Absence (%)", "setting": "15 mg, Baseline, some patients had no sexual activity", "result": "97.9^# %"}, {"measurement": "Dysuria score (none=0, mild=1, moderate=2, severe=3), mean ± SD", "setting": "15 mg, Week 12", "result": "0.3 ± 0.61"}, {"measurement": "Vaginal and/or vulvar irritation/itching score (none=0, mild=1, moderate=2, severe=3), mean ± SD", "setting": "15 mg, Week 12", "result": "0.4 ± 0.70"}, {"measurement": "Vaginal bleeding associated with sexual activity, Absence (%)", "setting": "15 mg, Week 12", "result": 95.8, "unit": "%"}, {"measurement": "Vaginal bleeding associated with sexual activity, Presence (%)", "setting": "15 mg, Week 12", "result": 4.2, "unit": "%"}, {"measurement": "Vaginal dryness score (none=0, mild=1, moderate=2, severe=3), mean ± SD", "setting": "15 mg, Week 12", "result": "0.5 ± 0.68"}, {"measurement": "Vaginal pain associated with sexual activity score (none=0, mild=1, moderate=2, severe=3), mean ± SD", "setting": "15 mg, Week 12", "result": "0.3 ± 0.54"}]}
